biological target: T1, recombinant Vps34 (Homo sapiens, UniProt Q8NEB9); assay: Phosphorylation of phosphatidylinositol (PI) by Vps34 in vitro, ADP detected by TR-FRET (HTRF Transcreener ADP); type: biochemical; conditions: 10 μM ATP, 55 μg/ml PI, approximately 3 nM Vps34, 1 hour at ambient temperature; absolute IC50, mean of two independent experiments; read-out: IC50 activity range
T1 construct: purchased Invitrogen PV5126
T1 sequence (Q8NEB9 whole entry): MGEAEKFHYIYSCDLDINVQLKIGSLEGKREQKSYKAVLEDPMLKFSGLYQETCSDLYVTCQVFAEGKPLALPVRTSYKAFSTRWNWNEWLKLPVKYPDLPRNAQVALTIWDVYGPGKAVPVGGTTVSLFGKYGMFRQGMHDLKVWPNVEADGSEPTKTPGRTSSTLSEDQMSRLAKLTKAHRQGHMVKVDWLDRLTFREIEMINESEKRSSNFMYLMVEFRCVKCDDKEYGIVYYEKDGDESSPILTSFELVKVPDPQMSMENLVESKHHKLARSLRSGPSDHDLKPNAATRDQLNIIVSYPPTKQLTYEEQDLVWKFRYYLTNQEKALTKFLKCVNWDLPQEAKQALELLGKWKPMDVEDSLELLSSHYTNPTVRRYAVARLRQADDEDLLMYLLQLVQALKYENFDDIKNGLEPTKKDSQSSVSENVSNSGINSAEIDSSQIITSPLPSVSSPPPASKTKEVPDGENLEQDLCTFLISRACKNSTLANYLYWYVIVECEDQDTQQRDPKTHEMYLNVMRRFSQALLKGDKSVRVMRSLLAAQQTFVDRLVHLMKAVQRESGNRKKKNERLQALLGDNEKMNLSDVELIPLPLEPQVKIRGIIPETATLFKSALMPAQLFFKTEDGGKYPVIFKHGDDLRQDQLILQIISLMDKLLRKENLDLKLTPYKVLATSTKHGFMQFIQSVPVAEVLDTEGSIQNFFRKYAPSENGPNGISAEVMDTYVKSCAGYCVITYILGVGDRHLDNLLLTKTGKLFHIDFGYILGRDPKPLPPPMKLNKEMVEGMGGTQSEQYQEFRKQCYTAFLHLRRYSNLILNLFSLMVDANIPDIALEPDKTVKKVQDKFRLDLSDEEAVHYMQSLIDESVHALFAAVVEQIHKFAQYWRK

IC50 [nM] | SMILES
10 to 100 | O=c1cc(N2CC3CCC(C2)O3)nc2n1CC[C@@H](C(F)(F)F)N2Cc1ccc(Cl)s1 [Example 162, (S)-9-(5-Chloro-thiophen-2-ylmethyl)-2-(8-oxa-3-aza-bicyclo[3.2.1]oct-3-yl)-8-trifluoromethyl-6,7,8,9-tetrahydro-pyrimido[1,2-a]-pyrimidin-4-one]
< 10 | C[C@@H]1COCCN1c1cc(=O)n2c(n1)N(CC(=O)c1cccnc1)[C@](C)(C(F)(F)F)C2 [Example 180, (S)-2-Methyl-7-((R)-3-methylmorpholin-4-yl)-1-(2-oxo-2-pyridin-3-ylethyl)-2-trifluoromethyl-2,3-dihydro-1H-imidazo[1,2-a]-pyrimidin-5-one]
< 10 | C[C@@H]1COCCN1c1cc(=O)n2c(n1)N(CC1CCCO1)[C@H](C(F)(F)F)CC2 (single isomer, unassigned) [Example 136]
< 10 | C[C@@H]1COCCN1c1cc(=O)n2c(n1)N(CC(=O)c1ccnc(F)c1)[C@H](C(F)(F)F)CC2 [Example 25, (S)-9-[2-(2-Fluoro-pyridin-4-yl)-2-oxo-ethyl]-2-((R)-3-methyl-morpholin-4-yl)-8-trifluoromethyl-6,7,8,9-tetrahydro-pyrimido[1,2-a]-pyrimidin-4-one]
10 to 100 | O=C(CN1c2nc(N3CC4CCC(C3)O4)cc(=O)n2CC[C@H]1C(F)(F)F)C1CC1 [Example 271, (S)-9-(2-Cyclopropyl-2-oxoethyl)-2-(8-oxa-3-azabicyclo[3.2.1]oct-3-yl)-8-trifluoromethyl-6,7,8,9-tetrahydro-pyrimido[1,2-a]-pyrimidin-4-one]
10 to 100 | C[C@@H]1COCCN1c1cc(=O)n2c(n1)N(CC(=O)N1CC3(CCO3)C1)[C@H](C(F)(F)F)CC2 [Example 330, (S)-2-((R)-3-Methyl-morpholin-4-yl)-9-[2-(1-oxa-6-aza-spiro[3.3]hept-6-yl)-2-oxoethyl]-8-trifluoromethyl-6,7,8,9-tetrahydropyrimido-[1,2-a]pyrimidin-4-one]
10 to 100 | Cc1nnc(CN2c3nc(N4CCOC[C@H]4C)cc(=O)n3CC[C@H]2C(F)(F)F)s1 [Example 123, (S)-2-((R)-3-Methyl-morpholin-4-yl)-9-(5-methyl-[1,3,4]thiadiazol-2-yl-methyl)-8-trifluoromethyl-6,7,8,9-tetrahydro-pyrimido[1,2-a]-pyrimidin-4-one]
< 10 | C[C@@H]1COCCN1c1cc(=O)n2c(n1)N(Cc1cocn1)[C@H](C(F)(F)F)CC2 [Example 103, (S)-2-((R)-3-Methyl-morpholin-4-yl)-9-oxazol-4-ylmethyl-8-trifluoromethyl-6,7,8,9-tetrahydro-pyrimido[1,2-a]-pyrimidin-4-one]
10 to 100 | C[C@@H]1COCCN1c1cc(=O)n2c(n1)N(CC(=O)C1CCOC1)[C@H](C(F)(F)F)CC2 (stereo partly drawn) [Example 269, (S)-2-((R)-3-Methyl-morpholin-4-yl)-9-[2-oxo-2-(tetrahydro-furan-3-yl)ethyl]-8-trifluoromethyl-6,7,8,9-tetrahydro-pyrimido[1,2-a]-pyrimidin-4-one]
< 10 | C[C@@H]1COCCN1c1nc2n(c(=O)c1F)CC[C@@H](C(F)(F)F)N2c1ccc(C(F)F)nc1 [Example 53, (S)-9-(6-Difluoromethylpyridin-3-yl)-3-fluoro-2-((R)-3-methylmorpholin-4-yl)-8-trifluoromethyl-6,7,8,9-tetrahydro-pyrimido[1,2-a]-pyrimidin-4-one]
< 10 | CC(C)Oc1cc(CN2c3nc(N4CCOC[C@H]4C)cc(=O)n3CC[C@H]2C(F)(F)F)ccn1 [Example 225, (S)-9-(2-Isopropoxy-pyridin-4-ylmethyl)-2-((R)-3-methyl-morpholin-4-yl)-8-trifluoromethyl-6,7,8,9-tetrahydro-pyrimido[1,2-a]-pyrimidin-4-one]
< 10 | Cc1cc(CN2c3nc(N4[C@H](C)COC[C@H]4C)cc(=O)n3CC[C@H]2C(F)(F)F)on1 [Example 155, (S)-2-((3R,5R)-3,5-Dimethylmorpholin-4-yl)-9-(3-methyl-isoxazol-5-ylmethyl)-8-trifluoromethyl-6,7,8,9-tetrahydro-pyrimido[1,2-a]-pyrimidin-4-one]
< 10 | CC1COCC(C)N1c1cc(=O)n2c(n1)N(Cc1ccc(Cl)s1)[C@H](C(F)(F)F)CC2 (stereo in doubt) [Example 152, (S)-9-(5-Chloro-thiophen-2-ylmethyl)-2-((3S,5S)-3,5-dimethylmorpholin-4-yl)-8-trifluoromethyl-6,7,8,9-tetrahydro-pyrimido[1,2-a]-pyrimidin-4-one]
> 100 | C[C@@H]1COCCN1c1cc(=O)n2c(n1)N(CC(N)=O)[C@H](C(F)(F)F)CC2 [Example 263, 2-[(S)-8-((R)-3-Methyl-morpholin-4-yl)-6-oxo-2-trifluoromethyl-3,4-dihydro-2H,6H-pyrimido[1,2-a]-pyrimidin-1-yl]-acetamide]
< 10 | CCC(C)N1c2nc(N3CCOC[C@H]3C)cc(=O)n2CC[C@H]1C(F)(F)F (single isomer, unassigned) [Example 284]
10 to 100 | C[C@H]1COCCN1c1cc(=O)n2c(n1)N(Cc1ccc(Cl)s1)[C@H](C(F)(F)F)CC2 [Example 178, (S)-9-(5-Chloro-thiophen-2-ylmethyl)-2-((S)-3-methyl-morpholin-4-yl)-8-trifluoromethyl-6,7,8,9-tetrahydro-pyrimido[1,2-a]-pyrimidin-4-one]
< 10 | C[C@@H]1COCCN1c1cc(=O)n2c(n1)N(CC1CCCCO1)[C@H](C(F)(F)F)CC2 (single isomer, unassigned) [Example 138]
< 10 | O=C(CN1c2nc(N3CC4CCC(C3)O4)cc(=O)n2CC[C@H]1C(F)(F)F)c1ccccc1 [Example 163, (S)-2-(8-Oxa-3-aza-bicyclo[3.2.1]oct-3-yl)-9-(2-oxo-2-phenyl-ethyl)-8-trifluoromethyl-6,7,8,9-tetrahydro-pyrimido[1,2-a]-pyrimidin-4-one]
< 10 | C[C@@H]1COCCN1c1nc2n(c(=O)c1F)CC[C@@H](C(F)(F)F)N2CC(=O)N1CC2(COC2)C1 [Example 293, (S)-3-Fluoro-2-((R)-3-methylmorpholin-4-yl)-9-[2-(2-oxa-6-aza-spiro[3.3]hept-6-yl)-2-oxoethyl]-8-trifluoromethyl-6,7,8,9-tetrahydro-pyrimido[1,2-a]-pyrimidin-4-one]
< 10 | CO/N=C(\CN1c2nc(N3CCOC[C@H]3C)cc(=O)n2CC[C@H]1C(F)(F)F)C1CC1 (single isomer, unassigned) [Example 307]
< 10 | CC(C)Oc1cc(N2CC[C@H](C(F)(F)F)n3c2nc(N2CCOC[C@H]2C)cc3=O)ccn1 [Example 114, (R)-9-(2-Isopropoxy-pyridin-4-yl)-2-((R)-3-methylmorpholin-4-yl)-6-trifluoromethyl-6,7,8,9-tetrahydro-pyrimido[1,2-a]-pyrimidin-4-one]
< 10 | CC(C)c1nc(CN2c3nc(N4CCOC[C@H]4C)c(F)c(=O)n3CC[C@H]2C(F)(F)F)no1 [Example 246, (S)-3-Fluoro-9-(5-isopropyl-[1,2,4]oxadiazol-3-yl-methyl)-2-((R)-3-methylmorpholin-4-yl)-8-trifluoromethyl-6,7,8,9-tetrahydro-pyrimido[1,2-a]-pyrimidin-4-one]
< 10 | COc1cc(N2c3nc(N4CCOC[C@H]4C)c(F)c(=O)n3CC[C@H]2C(F)(F)F)ccn1 [Example 40, (S)-3-Fluoro-9-(2-methoxypyridin-4-yl)-2-((R)-3-Methyl-morpholin-4-yl)-8-trifluoromethyl-6,7,8,9-tetrahydro-pyrimido[1,2-a]-pyrimidin-4-one]
< 10 | C[C@@H]1COCCN1c1cc(=O)n2c(n1)N(Cc1ccc(Cl)nc1)CC[C@@H]2C(F)(F)F [Example 115, (R)-9-(6-Chloro-pyridin-3-ylmethyl)-2-((R)-3-methyl-morpholin-4-yl)-6-trifluoromethyl-6,7,8,9-tetrahydro-pyrimido[1,2-a]-pyrimidin-4-one]
< 10 | C[C@@H]1COCCN1c1nc2n(c(=O)c1F)C[C@@](C)(C(F)(F)F)N2CC(=O)c1ccccn1 [Example 199, (S)-6-Fluoro-2-methyl-7-((R)-3-methyl-morpholin-4-yl)-1-(2-oxo-2-pyridin-2-yl-ethyl)-2-trifluoromethyl-2,3-dihydro-1H-imidazo[1,2-a]-pyrimidin-5-one]
< 10 | CC(C)C(O)CN1c2nc(N3CCOC[C@H]3C)cc(=O)n2CC[C@H]1C(F)(F)F (stereo partly drawn) [Example 287, (S)-9-(2-Hydroxy-3-methylbutyl)-2-((R)-3-methylmorpholin-4-yl)-8-trifluoromethyl-6,7,8,9-tetrahydro-pyrimido[1,2-a]-pyrimidin-4-one]
< 10 | Cc1nc(CN2c3nc(N4CCOC[C@H]4C)cc(=O)n3CC[C@H]2C(F)(F)F)c(C)o1 [Example 93, (S)-9-(2,5-Dimethyl-oxazol-4-ylmethyl)-2-((R)-3-methyl-morpholin-4-yl)-8-trifluoromethyl-6,7,8,9-tetrahydro-pyrimido[1,2-a]-pyrimidin-4-one]
< 10 | C[C@@H]1COCCN1c1cc(=O)n2c(n1)N(CCc1ccc(F)cc1)[C@H](C(F)(F)F)CC2 [Example 219, (S)-9-[2-(4-Fluoro-phenyl)ethyl]-2-((R)-3-methylmorpholin-4-yl)-8-trifluoromethyl-6,7,8,9-tetrahydro-pyrimido[1,2-a]-pyrimidin-4-one]
10 to 100 | CC(=O)CN1CC[C@H](C(F)(F)F)n2c1nc(N1CCOC[C@H]1C)c(F)c2=O [Example 148, (R)-3-Fluoro-2-((R)-3-methylmorpholin-4-yl)-9-(2-oxopropyl)-6-trifluoromethyl-6,7,8,9-tetrahydro-pyrimido[1,2-a]-pyrimidin-4-one]
10 to 100 | O=c1cc(N2CC3CCC(C2)O3)nc2n1CC[C@@H](C(F)(F)F)N2Cc1ccon1 [Example 169, (S)-9-Isoxazol-3-yl-methyl-2-(8-oxa-3-azabicyclo[3.2.1]oct-3-yl)-8-trifluoromethyl-6,7,8,9-tetrahydro-pyrimido[1,2-a]-pyrimidin-4-one]
